What all share (type): cell-based
Assay [1] deals with T1, ERα (Homo sapiens, UniProt P03372).
T1 construct: expressed in transfected cells
T1 sequence (P03372 1-595): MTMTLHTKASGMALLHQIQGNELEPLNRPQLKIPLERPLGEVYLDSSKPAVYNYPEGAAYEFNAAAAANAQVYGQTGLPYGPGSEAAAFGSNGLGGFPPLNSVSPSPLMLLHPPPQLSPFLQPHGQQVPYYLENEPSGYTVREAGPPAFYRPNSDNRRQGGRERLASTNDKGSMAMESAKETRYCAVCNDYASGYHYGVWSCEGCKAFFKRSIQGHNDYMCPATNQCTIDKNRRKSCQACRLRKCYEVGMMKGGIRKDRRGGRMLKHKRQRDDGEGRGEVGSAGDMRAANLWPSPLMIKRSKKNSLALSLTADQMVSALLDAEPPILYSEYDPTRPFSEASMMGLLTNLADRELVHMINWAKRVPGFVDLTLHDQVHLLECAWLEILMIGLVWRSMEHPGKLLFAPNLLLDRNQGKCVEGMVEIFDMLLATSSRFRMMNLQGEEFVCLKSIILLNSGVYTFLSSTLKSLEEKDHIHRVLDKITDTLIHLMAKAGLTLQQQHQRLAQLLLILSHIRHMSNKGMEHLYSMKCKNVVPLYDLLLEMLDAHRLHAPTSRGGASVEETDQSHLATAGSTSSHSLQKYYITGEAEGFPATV
The assay can be described thus: Counterscreening, Firefly signal with ERα transient transfection (Firefly_ERa). Conditions: for Firefly_ERa, cmpd/DMSO repeat 1 / Firefly_ERa, cmpd/DMSO repeat 2: ERα transient transfection, 10 μM; for Firefly ERalpha transient, cmpd/DMSO (mean): Table 15, 10 uM. The method, then: The methodology for screening candidate compounds as NR2F6 agonists was as follows: For primary screening, hit criteria was ACT %>DMSO control+5*SD (DSO control) at 10 μM, or any compound with S/B>2. For rescreening, hit criteria was ACT %>DMSO control+3*SD (DSO control) in each replicate at 10 μM. For counterscreening, hit criteria was mean ACT<DMSO control+3*SD (DMSO control) with ERα transient transfection in duplicate at 10 μM.
(A counterscreen serves to expose hits that act by an unwanted route or on another target.)

Assay [2] has as its system HEK293 pGL4. The assay can be described thus: Firefly_pGL signal, cmpd/DMSO (pGL4 control cells). To be noted: Homo sapiens, HEK293, Table 14, read-out: Firefly pGL4, cmpd/DMSO (mean).
Assay [3] relates to Renilla. As to the kind of experiment: Renilla signal in NR2F6 agonist screening, cmpd/DMSO. To be noted: Renilla.
Assay [4] deals with Renilla_ERa. As to the kind of experiment: Renilla signal in ERα counterscreen (Renilla_ERa). To be noted: ERα transient transfection, 10 μM.
Assay [5] deals with T2, NR2F6 (Homo sapiens, UniProt P10588).
T2 construct: expressed in transfected cells; also transient transfection
T2 sequence (P10588 1-404): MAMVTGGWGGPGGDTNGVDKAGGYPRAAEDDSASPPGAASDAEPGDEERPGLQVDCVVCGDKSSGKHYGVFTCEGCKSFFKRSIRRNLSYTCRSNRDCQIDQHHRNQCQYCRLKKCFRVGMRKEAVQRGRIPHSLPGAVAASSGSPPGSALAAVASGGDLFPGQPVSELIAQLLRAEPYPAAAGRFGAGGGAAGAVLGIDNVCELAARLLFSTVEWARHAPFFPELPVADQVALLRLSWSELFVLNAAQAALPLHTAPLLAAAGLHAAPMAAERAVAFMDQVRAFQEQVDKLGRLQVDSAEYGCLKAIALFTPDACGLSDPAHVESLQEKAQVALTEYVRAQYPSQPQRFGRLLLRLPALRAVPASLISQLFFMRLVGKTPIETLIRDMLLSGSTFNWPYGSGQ
The assay can be described thus: NR2F6 agonist screening, Firefly signal cmpd/DMSO. Conditions: for activity (in words): screening result.

Assay [6] concerns the target T1, ERα. As to the kind of experiment: Counterscreening, Firefly signal with ERα transient transfection (Firefly_ERa). Conditions: Table 15.
The mark [7] stands for this setting: Table 14, read-out: Renilla F4, cmpd/DMSO (mean).
The mark [8] stands for this setting: Table 14, 10 uM, read-out: Renilla F4, cmpd/DMSO (mean).
The mark [9] stands for this setting: first set screening, 10 μM, repeat 1, read-out: Renilla, cmpd/DMSO repeat 1.
Where [10] appears, read: first set screening, 10 μM, repeat 2, read-out: Renilla, cmpd/DMSO repeat 2.
Setting [11] is: repeat 1, read-out: Renilla_ERa, cmpd/DMSO repeat 1.
[12] abbreviates: repeat 2, read-out: Renilla_ERa, cmpd/DMSO repeat 2.
The mark [13] stands for this setting: C11 analogs follow set (Tables 2-10).

Structures are written as SMILES. “Also recorded” adds a separate entry of the source. Like-named read-outs stand apart in the source and are kept apart here.

Results on eight compounds are retold here after patent US11377442B2, “Small molecule agonists and antagonists of NR2F6 activity” (ZANDER THERAPEUTICS, INC., priority 2016, dated 2022).

Consider `Cc1ccc(-c2nc3ccccc3c(=O)[nH]2)cc1` [Compound C3], for which the “Firefly_ERa, cmpd/DMSO repeat 1” value in assay [1] turned out to be 1.8. Also, the “Firefly_ERa, cmpd/DMSO repeat 2” value in assay [1] is 1.9. Besides, the fold induction at 2 µM in assay [2] stood at 1.1; in assay [3] (setting [7]), 1. Also, the fold induction at 10 µM is 1.3 in assay [2]; 0.9 in assay [3] (setting [8]); 1.6 in assay [3] (setting [9]); 1.2 in assay [3] (setting [10]); 1.1 in assay [4] (setting [11]); 1.2 in assay [4] (setting [12]). The fold induction at 40 µM in assay [2] was determined as 1; in assay [3] (setting [7]), 0.9. Further, the “Firefly F4, cmpd/DMSO (mean)” value in assay [5] (Table 14, 2 uM) is given as 1.5; in assay [5] (Table 14, 10 uM) it was 1.1; in assay [5] (Table 14, 40 uM), 0.9. For the same compound, in assay [5] (first set screening, 10 μM), the “Firefly, cmpd/DMSO repeat 1” value is recorded as 2.0. Moreover, the “Firefly, cmpd/DMSO repeat 2” value in assay [5] (first set screening, 10 μM) turned out to be 2.0.

Turning to `CCOC(=O)c1cnn2c(-c3ccc(Cl)cc3)ccnc12` [Compound C4], the “Firefly_ERa, cmpd/DMSO repeat 1” value in assay [1] was determined as 1.6. Also, the “Firefly_ERa, cmpd/DMSO repeat 2” value in assay [1] is given as 1.7. The fold induction at 2 µM in assay [2] came to 1; in assay [3] (setting [7]), 0.6. Besides, the fold induction at 10 µM in assay [2] is 0.9; in assay [3] (setting [8]), 0.5; in assay [3] (setting [9]) it was 1.6; in assay [3] (setting [10]), 1.5; in assay [4] (setting [11]), 1.1; in assay [4] (setting [12]), 1.2. Further, the fold induction at 40 µM in assay [2] stood at 1.3; in assay [3] (setting [7]), 0.5. In addition, the “Firefly F4, cmpd/DMSO (mean)” value in assay [5] (Table 14, 2 uM) is on record as 1.1; in assay [5] (Table 14, 10 uM), 0.8; in assay [5] (Table 14, 40 uM) it was 0.7. Besides, the “Firefly, cmpd/DMSO repeat 1” value in assay [5] (first set screening, 10 μM) is given as 2.5. In addition, the “Firefly, cmpd/DMSO repeat 2” value in assay [5] (first set screening, 10 μM) turned out to be 2.5.

`O=C(Nc1cccc(O)c1)c1cc(-c2ccc(Cl)c(Cl)c2)on1` [Compound C5]: the “Firefly_ERa, cmpd/DMSO repeat 1” value in assay [1] is 1.6. Further, in assay [1], the “Firefly_ERa, cmpd/DMSO repeat 2” value was found to be 2.0. The values for the fold induction at 2 µM in assay [2] and in assay [3] (setting [7]) were 1.3 and 0.7, respectively. In addition, the fold induction at 10 µM amounted to 1.2 in assay [2]; 0.5 in assay [3] (setting [8]); 1.3 in assay [3] (setting [9]); 1.4 in assay [3] (setting [10]); 1.2 in assay [4] (setting [11]); 1 in assay [4] (setting [12]). Moreover, the results for the fold induction at 40 µM in assay [2] and in assay [3] (setting [7]) were 1 and 1.1, respectively. The “Firefly F4, cmpd/DMSO (mean)” value in assay [5] (Table 14, 2 uM) was 0.9; in assay [5] (Table 14, 10 uM) it was 0.8; in assay [5] (Table 14, 40 uM) it was 0.8. The “Firefly, cmpd/DMSO repeat 1” value in assay [5] (first set screening, 10 μM) was found to be 2.2. Also, the “Firefly, cmpd/DMSO repeat 2” value in assay [5] (first set screening, 10 μM) stood at 1.7.

Consider `CCc1cc(C(=O)Nc2ccn(Cc3ccc(C)cc3)n2)no1` [Compound C6], for which, in assay [1], the “Firefly_ERa, cmpd/DMSO repeat 1” value is recorded as 2.2. The “Firefly_ERa, cmpd/DMSO repeat 2” value in assay [1] worked out at 1.4. Besides, the fold induction at 2 µM in assay [2] is 1.3; in assay [3] (setting [7]), 0.7. In addition, the fold induction at 10 µM stood at 1.3 in assay [2]; 0.6 in assay [3] (setting [8]); 1.2 in assay [3] (setting [9]); 0.9 in assay [3] (setting [10]); 1 in assay [4] (setting [11]); 1 in assay [4] (setting [12]). The fold induction at 40 µM came to 1 in assay [2] and 0.5 in assay [3] (setting [7]). Moreover, the “Firefly F4, cmpd/DMSO (mean)” value is recorded as 1.4 in assay [5] (Table 14, 2 uM); 0.6 in assay [5] (Table 14, 10 uM); 0.4 in assay [5] (Table 14, 40 uM). Further, the “Firefly, cmpd/DMSO repeat 1” value in assay [5] (first set screening, 10 μM) worked out at 2.6. Also, the “Firefly, cmpd/DMSO repeat 2” value in assay [5] (first set screening, 10 μM) came out at 1.9.

`CCc1cccc(Nc2cnn(-c3nc4ccccc4s3)c(=O)c2Cl)c1` [Compound C7]: the “Firefly_ERa, cmpd/DMSO repeat 1” value in assay [1] stood at 0.8. Further, the “Firefly_ERa, cmpd/DMSO repeat 2” value in assay [1] came to 0.5. The fold induction at 2 µM in assay [2] is 0.9; in assay [3] (setting [7]), 1. Moreover, the fold induction at 10 µM in assay [2] was found to be 0.8; in assay [3] (setting [8]), 0.3; in assay [3] (setting [9]), 1.1; in assay [3] (setting [10]), 1.4; in assay [4] (setting [11]) it was 0.8; in assay [4] (setting [12]) it was 0.8. For the same compound, the fold induction at 40 µM worked out at 0.8 in assay [2] and 0.4 in assay [3] (setting [7]). For the same compound, the “Firefly F4, cmpd/DMSO (mean)” value in assay [5] (Table 14, 2 uM) was determined as 0.6; in assay [5] (Table 14, 10 uM) it was 0.5; in assay [5] (Table 14, 40 uM) it was 0.4. In addition, the “Firefly, cmpd/DMSO repeat 1” value in assay [5] (first set screening, 10 μM) was 2.1. In assay [5] (first set screening, 10 μM), the “Firefly, cmpd/DMSO repeat 2” value is 2.1. For the same compound, the “activity (in words)” value in assay [5] is on record as “particularly good activity”.

For the compound `COC(=O)c1ccc2oc(=O)c(S(=O)(=O)c3ccccc3)cc2c1` [Compound C11], in assay [1], the “Firefly_ERa, cmpd/DMSO repeat 1” value was found to be 1.7. Further, in assay [1], the “Firefly_ERa, cmpd/DMSO repeat 2” value was 1.7. Besides, the fold induction at 2 µM in assay [2] and in assay [3] (setting [7]) was 1.1 each time. Further, the fold induction at 10 µM came out at 1.7 in assay [2]; 1.2 in assay [3] (setting [8]); 3.8 in assay [3] (setting [9]); 3.3 in assay [3] (setting [10]); 1.3 in assay [4] (setting [11]); 1.2 in assay [4] (setting [12]). Moreover, the fold induction at 40 µM was found to be 0.8 in assay [2] and 0.2 in assay [3] (setting [7]). Besides, the “Firefly, cmpd/DMSO repeat 1” value in assay [5] (setting [13]) came out at 24.6; in assay [5] (Table 12) it was 24.6; in assay [5] (first set screening, 10 μM) it was 13.5. For the same compound, the “Firefly, cmpd/DMSO repeat 2” value in assay [5] (setting [13]) was found to be 21.3; in assay [5] (Table 12), 21.3; in assay [5] (first set screening, 10 μM) it was 12.6. For the same compound, the “Firefly/Renilla (NR2F6 stable, clone F4)” value in assay [5] (Table 12, ratio Firefly/Renilla, NR2F6 stable clone F4) is on record as 1.8. Moreover, the “Firefly, NR2F6 stable (clone F4)/pGL4” value in assay [5] (Table 12, ratio of Firefly in NR2F6 stable clone F4 to pGL4) was determined as 7.0. The “Firefly F4, cmpd/DMSO (mean)” value in assay [5] (Table 14, 2 uM) is on record as 1.7; in assay [5] (Table 14, 10 uM), 1.6; in assay [5] (Table 14, 40 uM), 0.4. In assay [5], the “activity (in words)” value is “particularly good activity; also recorded: particularly promising”.

In the case of `CCOC(=O)c1cnc2c(C)cc(C)cc2c1NCCCN1CCCCC1` [Compound Z9], the results for the “Firefly ERalpha transient, cmpd/DMSO (mean)” value in assay [1], in assay [6] (2 uM) and in assay [6] (40 uM) were 2.7, 2.2 and 0.5, respectively. In addition, the “Firefly F4, cmpd/DMSO (mean)” value in assay [5] (Table 15, 2 uM) is recorded as 2.5; in assay [5] (Table 15, 10 uM) it was 6.7; in assay [5] (Table 15, 40 uM), 1.2.

Turning to `CCOC(=O)c1cnc2c(C)cc(C)cc2c1NCCCN1CCCCC1` [Compound Z10], the “Firefly ERalpha transient, cmpd/DMSO (mean)” value is recorded as 1.5 in assay [1], 4.2 in assay [6] (2 uM) and 0.5 in assay [6] (40 uM). Besides, the “Firefly F4, cmpd/DMSO (mean)” value in assay [5] (Table 15, 2 uM) is recorded as 5.8; in assay [5] (Table 15, 10 uM), 1.6; in assay [5] (Table 15, 40 uM) it was 0.7.
